From patent publication US7432260B2, “Pyrimidine compounds” (Cyclacel Limted, priority 2002, dated 2008)

What was measured:
CDK7/cyclin H = CDK7/cyclin H (Homo sapiens, UniProt P50613); test: CDK7 assay; assay type: biochemical; conditions: Table 2; read-out: Kinase Inhibition IC50 CDK7 cyclin H
How it was run: (§1)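 Recombinant human CDK7/cyclin H or CDK9/cyclin T1 (0.5–2 μg) phosphorylated biotinylated CTD heptapeptide-repeat substrate for 45 min at 30 °C in MOPS pH 7.2 buffer with 15 mM MgCl2 and 100 μM ATP plus [γ-32P]ATP. After avidin capture on P81 filters and phosphoric acid washes, 32P incorporation was counted by scintillation.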

Saos-2 = test: 72-h MTT cytotoxicity assay Saos-2; assay type: cell-based; conditions: Homo sapiens, SAOS-2, 72 h, Table 4
How it was run: (§2)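 Cells were seeded at densities set by doubling time, left overnight at 37° C, then exposed in triplicate to a 1/3 dilution series of compound (DMSO stock) for 72 h at 37° C. Viability was read by MTT reduction (4 h, dark, 37° C) with formazan dissolved in DMSO.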

CDK9/cyclin T1 = CDK9/cyclin T1 (Homo sapiens, UniProt P50750); test: CDK9 assay; assay type: biochemical; conditions: Table 2; read-out: Kinase Inhibition IC50 CDK9 cyclin T1
Sequence of CDK9/cyclin T1 (P50750 whole entry): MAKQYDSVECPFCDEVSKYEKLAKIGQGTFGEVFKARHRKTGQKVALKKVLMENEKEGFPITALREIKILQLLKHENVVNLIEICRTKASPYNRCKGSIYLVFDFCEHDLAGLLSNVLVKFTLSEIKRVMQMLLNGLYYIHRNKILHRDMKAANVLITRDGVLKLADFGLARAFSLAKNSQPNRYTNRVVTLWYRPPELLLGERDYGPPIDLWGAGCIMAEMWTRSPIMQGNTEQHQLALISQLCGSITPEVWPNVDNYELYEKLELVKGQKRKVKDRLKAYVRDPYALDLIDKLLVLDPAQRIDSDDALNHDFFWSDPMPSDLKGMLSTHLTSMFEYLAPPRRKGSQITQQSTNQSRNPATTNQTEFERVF
Sequence of CDK9/cyclin T1 (O60563 whole entry partner): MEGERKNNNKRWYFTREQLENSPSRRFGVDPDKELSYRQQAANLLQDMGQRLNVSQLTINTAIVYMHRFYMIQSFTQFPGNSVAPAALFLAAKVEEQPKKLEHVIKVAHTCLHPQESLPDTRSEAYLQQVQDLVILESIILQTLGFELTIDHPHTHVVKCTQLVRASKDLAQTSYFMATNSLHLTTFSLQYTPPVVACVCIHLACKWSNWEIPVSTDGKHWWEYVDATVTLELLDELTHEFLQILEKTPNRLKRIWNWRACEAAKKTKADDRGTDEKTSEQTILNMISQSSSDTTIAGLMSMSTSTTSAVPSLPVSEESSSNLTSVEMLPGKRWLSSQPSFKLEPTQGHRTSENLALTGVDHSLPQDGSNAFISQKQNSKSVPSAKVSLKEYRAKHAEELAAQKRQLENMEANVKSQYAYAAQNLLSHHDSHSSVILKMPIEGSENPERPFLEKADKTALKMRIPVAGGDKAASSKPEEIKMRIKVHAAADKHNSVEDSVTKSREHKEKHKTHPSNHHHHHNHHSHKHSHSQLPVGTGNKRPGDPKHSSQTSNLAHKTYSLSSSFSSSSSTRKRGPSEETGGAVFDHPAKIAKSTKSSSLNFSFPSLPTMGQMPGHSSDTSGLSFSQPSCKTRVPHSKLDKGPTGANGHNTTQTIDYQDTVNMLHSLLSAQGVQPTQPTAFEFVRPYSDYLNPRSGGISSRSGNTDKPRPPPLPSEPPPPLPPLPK
How it was run: as §1

GSK-3β = GSK-3β (Homo sapiens, UniProt P49841); test: Kinase assay GSK-3β; assay type: biochemical; conditions: Table 2; read-out: Kinase Inhibition IC50 GSK-3β
Sequence of GSK-3β (P49841 whole entry): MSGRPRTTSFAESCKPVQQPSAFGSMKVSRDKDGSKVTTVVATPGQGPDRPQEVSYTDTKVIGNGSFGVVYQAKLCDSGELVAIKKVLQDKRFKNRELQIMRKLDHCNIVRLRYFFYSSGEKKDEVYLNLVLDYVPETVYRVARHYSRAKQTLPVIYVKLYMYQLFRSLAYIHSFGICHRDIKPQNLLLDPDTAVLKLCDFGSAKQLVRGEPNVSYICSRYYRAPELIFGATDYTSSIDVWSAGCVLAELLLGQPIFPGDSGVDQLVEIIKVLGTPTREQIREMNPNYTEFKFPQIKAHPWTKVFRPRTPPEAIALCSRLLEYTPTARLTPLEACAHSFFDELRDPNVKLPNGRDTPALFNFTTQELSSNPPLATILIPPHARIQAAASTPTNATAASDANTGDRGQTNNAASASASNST
Procedure: (§3) Kinase assays. […] This was achieved by measurement of incorporation of radioactive phosphate from ATP into appropriate polypeptide substrates. Recombinant protein kinases and kinase complexes were produced or obtained commercially. Assays were performed using 96-well plates and appropriate assay buffers (typically 25 mM β-glycerophosphate, 20 mM MOPS, 5 mM EGTA, 1 mM DTT, 1 mM […], pH 7.4), into which were added 2-4 μg of active enzyme with appropriate substrates. The reactions were initiated by addition of Mg/ATP mix (15 mM MgCl2+100 μM ATP with 30-50 kBq per well of [γ-^32P]-ATP) and mixtures incubated as required at 30° C. Reactions were stopped on ice, followed by filtration through p81 filterplates or GF/C filterplates (Whatman Polyfiltronics, Kent, UK). After washing 3 times with 75 mM aq orthophosphoric acid, plates were dried, scintillant added and incorporated radioactivity measured in a scintillation counter (TopCount, Packard Instruments, Pangbourne, Berks, UK). Compounds for kinase assay were made-up as 10 mM stocks in DMSO and diluted into 10% DMSO inrassay buffer.

A549 = test: 72-h MTT cytotoxicity assay A549; assay type: cell-based; conditions: Homo sapiens, A549, 72 h, Table 4
How it was run: as §2

PLK-1 = PLK-1 (Homo sapiens, UniProt P53350); test: Kinase assay PLK-1; assay type: biochemical; conditions: Table 2; read-out: Kinase Inhibition IC50 PLK-1
Sequence of PLK-1 (P53350 whole entry): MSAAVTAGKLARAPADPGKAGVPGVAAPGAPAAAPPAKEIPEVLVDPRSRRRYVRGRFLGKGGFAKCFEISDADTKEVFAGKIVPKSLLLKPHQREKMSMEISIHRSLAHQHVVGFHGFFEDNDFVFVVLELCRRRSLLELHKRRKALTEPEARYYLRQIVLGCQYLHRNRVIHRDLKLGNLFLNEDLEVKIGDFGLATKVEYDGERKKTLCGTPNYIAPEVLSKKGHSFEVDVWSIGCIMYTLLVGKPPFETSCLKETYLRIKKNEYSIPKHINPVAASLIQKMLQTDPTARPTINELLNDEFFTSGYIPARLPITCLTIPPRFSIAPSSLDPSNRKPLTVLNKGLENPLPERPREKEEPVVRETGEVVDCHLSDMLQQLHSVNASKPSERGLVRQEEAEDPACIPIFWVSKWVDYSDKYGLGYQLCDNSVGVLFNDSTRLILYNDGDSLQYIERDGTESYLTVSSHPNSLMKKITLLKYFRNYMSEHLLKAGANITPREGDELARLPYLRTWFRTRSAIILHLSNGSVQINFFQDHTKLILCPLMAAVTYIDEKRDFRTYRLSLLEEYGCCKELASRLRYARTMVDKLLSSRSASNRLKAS
Procedure: as §3

HT29 = test: 72-h MTT cytotoxicity assay HT29; assay type: cell-based; conditions: Homo sapiens, HT-29, 72 h, Table 4
How it was run: as §2

CDK1/cyclin B = CDK1/cyclin B (Homo sapiens, UniProt P06493); test: Kinase assay CDK1/cyclin B; assay type: biochemical; conditions: Table 2; read-out: Kinase Inhibition IC50 CDK1 cyclin B
Sequence of CDK1/cyclin B (P06493 whole entry): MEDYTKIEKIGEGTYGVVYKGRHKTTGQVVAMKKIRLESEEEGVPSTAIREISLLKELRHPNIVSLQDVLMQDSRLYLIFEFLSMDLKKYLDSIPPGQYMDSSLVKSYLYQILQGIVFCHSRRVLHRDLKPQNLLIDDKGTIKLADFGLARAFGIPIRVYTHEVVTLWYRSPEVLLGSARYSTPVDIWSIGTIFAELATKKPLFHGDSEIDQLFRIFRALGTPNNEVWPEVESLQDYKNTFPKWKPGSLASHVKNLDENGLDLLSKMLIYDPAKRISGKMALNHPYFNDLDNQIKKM
Sequence of CDK1/cyclin B (P14635 whole entry partner): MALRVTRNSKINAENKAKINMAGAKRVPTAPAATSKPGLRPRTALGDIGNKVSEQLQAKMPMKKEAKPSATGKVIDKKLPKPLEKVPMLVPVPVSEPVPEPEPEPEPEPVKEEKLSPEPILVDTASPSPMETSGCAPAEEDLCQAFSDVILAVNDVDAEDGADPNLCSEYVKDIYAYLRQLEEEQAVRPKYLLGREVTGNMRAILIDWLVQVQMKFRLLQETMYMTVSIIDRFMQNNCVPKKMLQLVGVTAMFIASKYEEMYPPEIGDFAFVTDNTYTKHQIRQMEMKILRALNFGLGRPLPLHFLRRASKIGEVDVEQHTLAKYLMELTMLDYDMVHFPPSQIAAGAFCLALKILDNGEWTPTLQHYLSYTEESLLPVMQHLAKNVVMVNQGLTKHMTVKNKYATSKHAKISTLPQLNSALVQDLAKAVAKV
How it was run: (§4)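 Radiometric kinase assays with recombinant enzymes (2-4 μg) and polypeptide substrates in β-glycerophosphate/MOPS/EGTA buffer, pH 7.4. Started with 15 mM MgCl2 + 100 μM ATP containing [γ-32P]-ATP, incubated at 30° C; incorporated 32P captured on filterplates and counted. Compounds diluted in 10% DMSO assay buffer.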

CDK4/cyclin D1 = CDK4/cyclin D1 (Homo sapiens, UniProt P11802); test: Kinase assay CDK4/cyclin D1; assay type: biochemical; conditions: Table 2; read-out: Kinase Inhibition IC50 CDK4 cyclin D1
Sequence of CDK4/cyclin D1 (P11802 whole entry): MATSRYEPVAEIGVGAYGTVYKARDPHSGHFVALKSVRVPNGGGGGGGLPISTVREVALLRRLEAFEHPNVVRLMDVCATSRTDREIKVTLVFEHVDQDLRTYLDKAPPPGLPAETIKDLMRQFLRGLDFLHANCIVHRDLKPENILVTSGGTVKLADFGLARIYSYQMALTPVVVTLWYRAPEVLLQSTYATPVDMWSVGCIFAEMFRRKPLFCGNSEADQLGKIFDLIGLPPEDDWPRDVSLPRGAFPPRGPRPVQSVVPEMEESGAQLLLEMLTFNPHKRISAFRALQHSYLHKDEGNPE
Sequence of CDK4/cyclin D1 (P24385 whole entry partner): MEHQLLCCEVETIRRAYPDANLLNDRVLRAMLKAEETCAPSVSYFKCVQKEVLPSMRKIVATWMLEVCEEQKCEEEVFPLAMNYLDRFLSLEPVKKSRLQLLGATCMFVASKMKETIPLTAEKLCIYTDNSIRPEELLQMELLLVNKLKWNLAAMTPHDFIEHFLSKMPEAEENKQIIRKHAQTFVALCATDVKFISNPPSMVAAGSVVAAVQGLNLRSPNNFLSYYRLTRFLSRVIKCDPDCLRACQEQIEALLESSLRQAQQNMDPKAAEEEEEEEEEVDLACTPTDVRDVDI
How it was run: as §4

CDK2/cyclin A = CDK2/cyclin A (Homo sapiens, UniProt P24941); test: Kinase assay CDK2/cyclin A; assay type: biochemical; conditions: Table 2; read-out: Kinase Inhibition IC50 CDK2 cyclin A
How it was run: as §4

CDK2/cyclin E = CDK2/cyclin E (Homo sapiens, UniProt P24941); test: Kinase assay CDK2/cyclin E; assay type: biochemical; conditions: Table 2; read-out: Kinase Inhibition IC50 CDK2 cyclin E
How it was run: as §4

Sequence of CDK7/cyclin H (P50613 whole entry): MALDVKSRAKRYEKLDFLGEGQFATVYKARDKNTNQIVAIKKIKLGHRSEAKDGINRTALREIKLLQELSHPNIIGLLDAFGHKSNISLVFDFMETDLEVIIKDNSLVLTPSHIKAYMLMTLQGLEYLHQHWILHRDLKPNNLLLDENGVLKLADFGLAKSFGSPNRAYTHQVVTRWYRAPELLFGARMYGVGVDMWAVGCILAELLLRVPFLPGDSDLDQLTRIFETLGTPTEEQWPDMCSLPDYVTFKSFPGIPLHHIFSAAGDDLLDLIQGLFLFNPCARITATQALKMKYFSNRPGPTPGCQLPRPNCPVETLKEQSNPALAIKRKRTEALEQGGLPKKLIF

Compound | IC50 (CDK7/cyclin H) [µM] | IC50 (Saos-2) [µM] | IC50 (CDK9/cyclin T1) [µM] | IC50 (GSK-3β) [µM] | IC50 (A549) [µM] | IC50 (PLK-1) [µM] | IC50 (HT29) [µM] | IC50 (CDK1/cyclin B) [µM] | IC50 (CDK4/cyclin D1) [µM] | IC50 (CDK2/cyclin A) [µM] | IC50 (CDK2/cyclin E) [µM] | melting point [°C]
Cc1nc(C)c(-c2ccnc(Nc3ccc(N4CCOCC4)cc3)n2)s1 [Compound 2, [4-(2,4-Dimethyl-thiazol-5-yl)-pyrimidin-2-yl]-(4-morpholin-4-yl-phenyl)-amine] | 97 | 4.8 | 23 | > 100 | 3.5 | > 100 | 3.3 | 75 | 3.9 | – | – | –
CC(=O)N1CCN(c2ccc(Nc3nccc(-c4sc(C)nc4C)n3)cc2)CC1 [Compound 5, 1-(4-{4-[4-(2,4-Dimethyl-thiazol-5-yl)-pyrimidin-2-ylamino]-phenyl}-piperazin-1-yl)-ethanone] | 5.6 | 3.9 | 6.1 | 21 | 3.8 | 35 | 2.2 | 5.6 | 1.7 | – | – | –
Cc1nc(C)c(-c2ccnc(Nc3ccc(N4CCNCC4)cc3)n2)s1 [Compound 6, [4-(2,4-Dimethyl-thiazol-5-yl)-pyrimidin-2-yl]-(4-piperazin-1-yl-phenyl)-amine] | 1.3 | 0.78 | 1 | 5.2 | 1.3 | 13 | 1.1 | 3 | 0.39 | 0.85 | 0.71 | –
Cc1nc(C)c(-c2ccnc(Nc3ccc(N4CCN(CCCO)CC4)cc3)n2)s1 [Compound 8, 3-(4-{4-[4-(2,4-Dimethyl-thiazol-5-yl)-pyrimidin-2-ylamino]-phenyl}-piperazin-1-yl)-propan-1-ol] | 0.97 | 0.38 | 0.51 | 39 | 0.61 | > 150 | 0.8 | 4.9 | 0.36 | 1.1 | 1.2 | –
Cc1nc(C)c(-c2ccnc(Nc3ccc(N4CCN(C)CC4)cc3)n2)s1 [Compound 12, [4-(2,4-Dimethyl-thiazol-5-yl)-pyrimidin-2-yl]-[4-(4-methyl-piperazin-1-yl)-phenyl]-amine] | 1.1 | 0.43 | 0.28 | 53 | 0.71 | 55 | 0.74 | 4.2 | 0.19 | 1 | 1.8 | –
Cc1nc(NC(=O)CCN2CCOCC2)sc1-c1ccnc(Nc2ccc(F)cc2)n1 [Compound 21, N-{5-[2-(4-Fluoro-phenylamino)-pyrimidin-4-yl]-4-methyl-thiazol-2-yl}-3-morpholin-4-yl-propionamide] | 4.9 | 4.3 | 0.46 | 14 | 8.6 | > 200 | 4.1 | 0.54 | 1.3 | 0.32 | 0.097 | –
Cc1nc(NC(=O)CCN2CCOCC2)sc1-c1ccnc(Nc2cccc([N+](=O)[O-])c2)n1 [Compound 22, N-{4-Methyl-5-[2-(3-nitro-phenylamino)-pyrimidin-4-yl]-thiazol-2-yl}-3-morpholin-4-yl-propionamide] | 0.2 | 0.6 | 0.11 | 0.25 | 0.81 | > 100 | 0.52 | 0.24 | 1.7 | 0.098 | 0.0025 | –
Cc1nc(NC(=O)CCN2CCN(C)CC2)sc1-c1ccnc(Nc2cccc([N+](=O)[O-])c2)n1 [Compound 23, N-{4-Methyl-5-[2-(3-nitro-phenylamino)-pyrimidin-4-yl]-thiazol-2-yl}-3-(4-methyl-piperazin-1-yl)-propionamide] | 0.81 | 4.4 | 0.4 | 1.2 | 3.8 | 24 | 1.1 | 3.1 | 3 | 1.4 | 0.19 | –
Cc1nc(C)c(-c2ccnc(Nc3ccc(NC(=O)CCl)cc3)n2)s1 [Compound 50, 2-Chloro-N-{4-[4-(2,4-dimethyl-thiazol-5-yl)-pyrimidin-2-ylamino]-phenyl}-acetamide] | 13 | 0.16 | 0.0018 | – | 0.16 | – | 0.16 | 3.4 | 0.95 | 0.89 | 0.39 | 217 to 219
Cc1nc(N2CCOCC2)sc1-c1ccnc(Nc2ccc(N3CCOCC3)cc2)n1 [Compound 56, [4-(4-Methyl-2-morpholin-4-yl-thiazol-5-yl)-pyrimidin-2-yl]-(4-morpholin-4-yl-phenyl)-amine] | 0.85 | 5 | 17 | > 100 | 4.4 | – | 2.9 | 18 | 0.022 | 68 | 0.6 | 229 to 231
CCNc1nc(C)c(-c2ccnc(Nc3cccc(CNC(C)=O)c3)n2)s1 [Compound 64, N-{3-[4-(2-Ethylamino-4-methyl-thiazol-5-yl)-pyrimidin-2-ylamino]-benzyl}-acetamide] | 0.59 | 0.34 | 0.1 | 2.1 | 0.19 | 18 | 0.41 | 0.74 | 0.13 | 0.31 | 0.08 | –
CC(=O)NCc1cccc(Nc2nccc(-c3sc(C)nc3C)n2)c1 [Compound 66, N-{3-[4-(2,4-Dimethyl-thiazol-5-yl)-pyrimidin-2-ylamino]-benzyl}-acetamide] | 2.1 | – | – | – | – | – | – | 0.12 | 0.63 | 0.1 | 0.11 | 206 to 207
Cc1nc(C)c(-c2ccnc(Nc3ccc(Cl)c(CO)c3)n2)s1 [Compound 72, {2-Chloro-5-[4-(2,4-dimethyl-thiazol-5-yl)-pyrimidin-2-ylamino]-phenyl}-methanol] | 9.6 | 18 | 4.1 | 48 | 32 | – | 20 | 62 | 25 | 12 | 0.73 | –
CNc1nc(C)c(-c2ccnc(Nc3ccc(Cl)c(CO)c3)n2)s1 [Compound 73, {2-Chloro-5-[4-(4-methyl-2-methylamino-thiazo1-5-yl)-pyrimidin-2-ylamino]-phenyl}-methanol] | 2 | 2.9 | 0.55 | 5.2 | 1.5 | – | 5.5 | 1.7 | 0.23 | 1.3 | 1 | –
CNc1nc(C)c(-c2ccnc(Nc3ccc(OCCOC)c([N+](=O)[O-])c3)n2)s1 [Compound 77, [4-(2-Methoxy-ethoxy)-3-nitro-phenyl]-[4-(4-methyl-2-methylamino-thiazol-5-yl)-pyrimidin-2-yl]-amine] | 1 | 0.35 | 0.26 | 6.1 | 0.31 | – | 0.21 | 72 | 3.4 | 1 | 0.15 | –
